# Patent publication US6784184B2, “5-(arylsulfonyl)-,5-(arylsulfinyl), and 5-(arylsulfanyl)-thiazolidine-2,4-diones useful for inhibition of farnesyl-protein transferase” (Wyeth Holdings Corporation, priority 2001, dated 2004)
# Tests used:
# FPTase (H-Ras substrate) = FPTase (H-Ras substrate) (UniProt P29702+P49355); assay: in vitro FTase Inhibition Assay, H-Ras as substrate for farnesylation; format: biochemical; conditions: H-Ras used as substrate for farnesylation
# Procedure, shortened: (§1)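 His6-Ras substrate ([…]) with 10 ng FPTase in 50 mM Tris pH 7.5, ZnCl2, MgCl2, KCl, DTT, 0.2% octyl-β-glucoside, 1% DMSO; incubated 30-90 min. TCA/SDS-precipitated Ras filtered, 3H-FPP incorporation counted; % inhibition from background-corrected cpm versus no-compound control.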
# FPTase (K-Ras substrate) = FPTase (K-Ras substrate) (UniProt P29702+P49355); assay: in vitro FTase Inhibition Assay, K-Ras as substrate for farnesylation; format: biochemical; conditions: K-Ras used as substrate for farnesylation
# Procedure, shortened: as §1
# [1] = tested on: K-ras dependent human colon carcinoma (LoVo); assay: In vivo effects against K-ras dependent human colon carcinoma (LoVo); conditions: rats; for S/T = No. Survivors/No.Treated: Day +35 post tumor cell implantation
# Protocol: Compounds of this invention were tested for in vivo effects in rats against various tumors. For the compound of Example 114, when tested against a K-ras dependent human colon carcinoma (LoVo), the following results were obtained (Table II): […]
Structure (SMILES),IC50 (FPTase (H-Ras substrate)),IC50 (FPTase (K-Ras substrate)),also measured
"COc1ccc(S(=O)(=O)C2(CCCC#Cc3cc(Cl)ccc3Cl)SC(=O)NC2=O)cc1 (centres unmarked) [Example 114, 5-[5-(2,5-Dichloro-phenyl)pent-4-ynyl]-5-(4-methoxy-benzenesulfonyl)-thiazolidine-2,4-dione]",0.013 to 0.032 µM,0.032 to 0.32 µM,"Mean Tumor Weight ([1]; Day 8, 75* mg/kg IP, BID days 1-20, prepared in 2% Tween 80 in D5W, vs 2% Tween in D5W): 86 mg; % T/C ([1]; Day 15, 75* mg/kg IP, BID days 1-20, prepared in 2% Tween 80 in D5W, vs 2% Tween in D5W): 150%; S/T = No. Survivors/No.Treated ([1]; 50 mg/kg IP, BID days 1-20, Methocel/Tween 80 series): 5/10; S/T = No. Survivors/No.Treated ([1]; 75 mg/kg IP, BID days 1-20, Methocel/Tween 80 series): 8/10; S/T = No. Survivors/No.Treated ([1]; 100 mg/kg IP, once a day days 1-20, Methocel/Tween 80 series): 9/10; S/T = No. Survivors/No.Treated ([1]; 100 mg/kg PO, BID days 1-20, 20% BCD in 0.1 N HCl series): 9/10"
"COc1ccc(S(=O)(=O)C2(CCCC#Cc3cc(NC(=O)Nc4ccc(Cl)cc4)ccc3C)SC(=O)NC2=O)cc1 (centres unmarked) [Example 189, N-(4-Chlorophenyl)-N′-[3-(5-{5-[(4-methoxy-phenyl)sulfonyl]-2,4-dioxo-1,3-thiazolidin-5-yl}-1-pentynyl)-4-methylphenyl]urea]",0.1 µM,1.2 µM,
"Cc1ccc(S(=O)(=O)C2(CCC/C=C\c3ccc(Cl)cc3)SC(=O)NC2=O)cc1 (centres unmarked) [Example 217, 5-[(4Z)-5-(4-Chloro-phenyl)pent-4-enyl]-5-(toluene-4-sulfonyl)-thiazolidine-2,4-dione]",0.1 µM,8.5 µM,
"COc1ccc(S(=O)(=O)C2(CCCC#Cc3cccc(N)c3)SC(=O)NC2=O)cc1 (centres unmarked) [Example 220, 5-[5-(3-Aminophenyl)pent-4-ynyl]-5-(4-methoxybenzenesulfonyl)-thiazolidine-2,4-dione]",0.09 µM,3 µM,
"CCCCOC(=O)Nc1ccc(C)c(C#CCCCC2(S(=O)(=O)c3ccc(OC)cc3)SC(=O)N(C(=O)OCCCC)C2=O)c1 (centres unmarked) [Example 231, Butyl 5-(5-{5-[(butoxycarbonyl)amino]-2-methylphenyl}pent-4-ynyl)-5-[(4-methoxy-phenyl)sulfonyl]-2,4-dioxo-1,3-thiazolidine-3-carboxylate]",0.01 to 0.021 µM,0.1 to 1 µM,
"COc1ccc(S(=O)(=O)C2(CCCC#Cc3cc(NC(=O)OCC(C)C)ccc3C)SC(=O)N(C(=O)OCC(C)C)C2=O)cc1 (centres unmarked) [Example 232, Isobutyl 5-(5-{5-[(isobutoxycarbonyl)-amino]-2-methylphenyl}pent-4-ynyl)-5-[(4-methoxyphenyl)sulfonyl]-2,4-dioxo-1,3-thiazolidine-3-carboxylate]",0.005 to 0.01 µM,0.04 to 0.64 µM,
"CC[C@]1(O)C[C@H]2CN(CCc3c([nH]c4ccccc34)[C@@](C(=O)OC)(c3cc4c(cc3OC)N(C=O)[C@H]3[C@@](O)(C(=O)OC)[C@H](OC(C)=O)[C@]5(CC)C=CCN6CC[C@]43[C@@H]65)C2)C1 [Vincristine, reference compound]",,,"S/T = No. Survivors/No.Treated ([1]; 1 mg/kg IP on days 5, 9 and 13): 9/10"

# More lines, main results first:
IC50 (FPTase (H-Ras substrate)),IC50 (FPTase (K-Ras substrate)),Structure (SMILES),also measured
0.002 to 0.032 µM,0.007 to 0.09 µM,"COc1ccc(S(=O)(=O)C2(CCCC#Cc3cc(NC(=O)OCC(C)(C)C)ccc3C)SC(=O)NC2=O)cc1 (centres unmarked) [Example 180, (3-{5-[5-(4-Methoxybenzenesulfonyl)-2,4-dioxothiazolidin-5-yl]pent-1-ynyl}-4-methylphenyl)carbamic Acid Neopentyl Ester]",
0.01 to 0.032 µM,0.1 to 0.13 µM,"CCCCOC(=O)Nc1ccc(C)c(C#CCCCC2(S(=O)(=O)c3ccc(OC)cc3)SC(=O)NC2=O)c1 (centres unmarked) [Example 181, (3-{5-[5-(4-Methoxybenzenesulfonyl)-2,4-dioxothiazolidin-5-yl]pent-1-ynyl}-4-methylphenyl)carbamic Acid Butyl Ester]",
0.005 to 0.01 µM,0.032 to 0.056 µM,"COc1ccc(S(=O)(=O)C2(CCCC#Cc3cc(NC(=O)OCC(C)C)ccc3C)SC(=O)NC2=O)cc1 (centres unmarked) [Example 182, (3-{5-[5-(4-Methoxybenzenesulfonyl)-2,4-dioxothiazolidin-5-yl]pent-1-ynyl}-4-methylphenyl)carbamic Acid Isobutyl]",
0.03 to 0.05 µM,0.1 to 3.2 µM,"COc1ccc(S(=O)(=O)C2(CCCC#Cc3cc(NC(=O)OCc4ccccc4)ccc3C)SC(=O)N(C(=O)OCc3ccccc3)C2=O)cc1 (centres unmarked) [Example 226, Benzyl 5-[5-(5-{[(benzyloxy)carbonyl]-amino}-2-methylphenyl)pent-4-ynyl]-5-[(4-methoxyphenyl)sulfonyl]-2,4-dioxo-1,3-thiazolidine-3-carboxylate]",
0.007 to 0.01 µM,0.21 to 0.4 µM,"COc1ccc(S(=O)(=O)C2(CCCC#Cc3cc(NC(=O)OCc4ccc([N+](=O)[O-])cc4)ccc3C)SC(=O)N(C(=O)OCc3ccc([N+](=O)[O-])cc3)C2=O)cc1 (centres unmarked) [Example 227, 4-Nitrobenzyl 5-[(4-methoxyphenyl)sulfonyl]-5-{5-[2-methyl-5-({[(4-nitrobenzyl)oxy]carbonyl}amino)phenyl]pent-4-ynyl}-2,4-dioxo-1,3-thiazolidine-3-carboxylate]",
0.004 to 0.07 µM,0.23 to 1 µM,"COC(=O)Nc1ccc(C)c(C#CCCCC2(S(=O)(=O)c3ccc(OC)cc3)SC(=O)N(C(=O)OC)C2=O)c1 (centres unmarked) [Example 228, Methyl 5-(5-{5-[(methoxycarbonyl)amino]-2-methylphenyl}pent-4-ynyl)-5-[(4-methoxyphenyl)sulfonyl]-2,4-dioxo-1,3-thiazolidine-3-carboxylate]",
0.006 to 0.02 µM,0.1 to 0.7 µM,"COc1ccc(S(=O)(=O)C2(CCCC#Cc3cc(NC(=O)OC(C)C)ccc3C)SC(=O)N(C(=O)OC(C)C)C2=O)cc1 (centres unmarked) [Example 229, Isopropyl 5-(5-{5-[(isopropoxycarbonyl)-amino]-2-methylphenyl}pent-4-ynyl)-5-[(4-methoxyphenyl)sulfonyl]-2,4-dioxo-1,3-thiazolidine-3-carboxylate]",
0.003 to 0.0035 µM,0.02 to 0.5 µM,"COc1ccc(S(=O)(=O)C2(CCCC#Cc3cc(NC(=O)OCC(C)(C)C)ccc3C)SC(=O)N(C(=O)OCC(C)(C)C)C2=O)cc1 (centres unmarked) [Example 230, Neopentyl 5-[(4-methoxyphenyl)sulfonyl]-5-[5-(2-methyl-5-{[(neopentyloxy)carbonyl]-amino}phenyl)pent-4-ynyl]-2,4-dioxo-1,3-thiazolidine-3-carboxylate]",
